In the supplement of paper PMC11451515:

Tests used:
Conditions in all cases: 48 h
NOMO1 [1] = test: cell viability relative to DMSO control; higher = less cytotoxic
Method in brief: (§1)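 Library compounds in DMSO were pin-dosed in an 11-point threefold series (47 μM to 0.79 nM) onto leukemia cells in 1536-well plates (5 μl). Plates held 500 cells/well of NOMO1 or SEM or 1000 cells/well of P12-Ichikawa, each adapted for at least four passages in each medium. Luminescence was read with CellTiter-Glo One after 48 h at 37°C. Viability means the per-plate percentage relative to DMSO wells, using cell-free wells as background.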

P12-Ichikawa [2] = test: as above
Method in brief: as §1

SEM cells [3] = test: as above
Method in brief: as §1

NOMO1 [4] = test: AUC of viability dose-response curve (% viability x log10 dose units); higher = less sensitive
Method in brief: (§2)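 Library compounds in DMSO were applied for 48 h at 37°C at 11 threefold doses (47 μM to 0.79 nM) to medium-adapted leukemia cells in 1536-well plates holding 500 or 1000 cells/well. Luminescence from CellTiter-Glo One was normalised plate by plate against DMSO and cell-free wells. Area under the curve came from trapezoidal integration of a log-logistic fit, after scaling curves that rose above full viability and discarding those that failed quality control. The fit had four parameters and used log10 doses.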

P12-Ichikawa [5] = test: as above
Method in brief: as §2

SEM cells [6] = test: as above
Method in brief: as §2

Cc1[nH]c(/C=C2\C(=O)Nc3ccc([S+](=O)([O-])Cc4c(Cl)cccc4Cl)cc32)c(C)c1C(=O)N1CCC[C@@H]1CN1CCCC1
cell viability [%]
Conditions | NOMO1 [1] | P12-Ichikawa [2] | SEM cells [3]
HPLM + 10% dialyzed FBS, 0.000781 µM | 100 | 105 | 100
HPLM + 10% dialyzed FBS, 0.00234 µM | 112 | 108 | 103
HPLM + 10% dialyzed FBS, 0.00702 µM | 97.5 | 99.7 | 102
HPLM + 10% dialyzed FBS, 0.0211 µM | 83 | 101 | 103
HPLM + 10% dialyzed FBS, 0.0632 µM | 92.8 | 98.8 | 112
HPLM + 10% dialyzed FBS, 0.19 µM | 96.4 | 111 | 96.6
HPLM + 10% dialyzed FBS, 0.569 µM | 98.2 | 108 | 94.8
HPLM + 10% dialyzed FBS, 1.71 µM | 84.3 | 97.9 | 76.5
HPLM + 10% dialyzed FBS, 5.12 µM | 81.2 | 91.5 | 6.42
HPLM + 10% dialyzed FBS, 15.4 µM | 87.7 | 87.4 | 45.4
HPLM + 10% dialyzed FBS, 46.1 µM | 59.9 | 78.3 | 9.75
RPMI 5 mM glucose + 10% FBS, 0.000781 µM | 108 | 99.4 | 116
RPMI 5 mM glucose + 10% FBS, 0.00234 µM | 101 | 103 | 114
RPMI 5 mM glucose + 10% FBS, 0.00702 µM | 89.1 | 105 | 107
RPMI 5 mM glucose + 10% FBS, 0.0211 µM | 93.2 | 99.7 | 116
RPMI 5 mM glucose + 10% FBS, 0.0632 µM | 88 | 94.6 | 111
RPMI 5 mM glucose + 10% FBS, 0.19 µM | 99.9 | 95.3 | 118
RPMI 5 mM glucose + 10% FBS, 0.569 µM | 99.3 | 107 | 109
RPMI 5 mM glucose + 10% FBS, 1.71 µM | 100 | 98.4 | 101
RPMI 5 mM glucose + 10% FBS, 5.12 µM | 90.5 | 81.5 | 25.7
RPMI 5 mM glucose + 10% FBS, 15.4 µM | 83.4 | 85.5 | 56.7
RPMI 5 mM glucose + 10% FBS, 46.1 µM | 79.6 | 84.4 | 34
RPMI 5 mM glucose + 10% dialyzed FBS, 0.000781 µM | 98.2 | 98 | 84.9
RPMI 5 mM glucose + 10% dialyzed FBS, 0.00234 µM | 89.8 | 95.8 | 99.4
RPMI 5 mM glucose + 10% dialyzed FBS, 0.00702 µM | 90.2 | 93.7 | 85.3
RPMI 5 mM glucose + 10% dialyzed FBS, 0.0211 µM | 94.4 | 101 | 94.2
RPMI 5 mM glucose + 10% dialyzed FBS, 0.0632 µM | 92.7 | 99 | 86.8
RPMI 5 mM glucose + 10% dialyzed FBS, 0.19 µM | 102 | 102 | 93.2
RPMI 5 mM glucose + 10% dialyzed FBS, 0.569 µM | 85.9 | 95 | 92.4
RPMI 5 mM glucose + 10% dialyzed FBS, 1.71 µM | 91.2 | 91.6 | 72.5
RPMI 5 mM glucose + 10% dialyzed FBS, 5.12 µM | 86.4 | 69.5 | 42
RPMI 5 mM glucose + 10% dialyzed FBS, 15.4 µM | 84.8 | 78.1 | 42.3
RPMI 5 mM glucose + 10% dialyzed FBS, 46.1 µM | 72.6 | 53 | 26.7

AUC of viability dose-response curve
Conditions | NOMO1 [4] | P12-Ichikawa [5] | SEM cells [6]
HPLM + 10% dialyzed FBS | 435 | 455 | 370
RPMI 5 mM glucose + 10% FBS | 438 | 456 | 394
RPMI 5 mM glucose + 10% dialyzed FBS | 432 | 430 | 361

CC(=O)OC\C1=C(\[N@]2[C@@H](SC1)[C@H](N)C2=O)C(O)=O
SEM cells [3], HPLM + 10% dialyzed FBS
Conditions | cell viability [%]
0.000781 µM | 104
0.00234 µM | 111
0.00702 µM | 119
0.0211 µM | 120
0.0632 µM | 123
0.19 µM | 141
0.569 µM | 129
1.71 µM | 138
5.12 µM | 125
15.4 µM | 126
46.1 µM | 97.1

AUC of viability dose-response curve
Conditions | NOMO1 [4] | P12-Ichikawa [5] | SEM cells [6]
HPLM + 10% dialyzed FBS | 330 | 346 | 462
RPMI 5 mM glucose + 10% FBS | 306 | 348 | 473
RPMI 5 mM glucose + 10% dialyzed FBS | 324 | 370 | 470
